Measurements: patent publication US12195596B2, “Hyperbranched boric acid modified phthalonitrile monomer as well as preparation method and use thereof” (priority 2021, dated 2025)

Test: Solubility of phthalonitrile monomers in common organic solvents
Type: physicochemical
Parameters: key: “+” represents “soluble”

Measured: Solubility

N#Cc1ccc(Oc2cccc(OB(Oc3cccc(Oc4ccc(C#N)c(C#N)c4)c3)Oc3cccc(Oc4ccc(C#N)c(C#N)c4)c3)c2)cc1C#N [Example 3]
+: DMF | DMSO | NMP | THF | acetone

N#Cc1ccc(Oc2cccc(OB(Oc3cccc(Oc4ccc(C#N)c(C#N)c4)c3)c3ccccc3)c2)cc1C#N [Example 4]
+: DMF | DMSO | NMP | THF | acetone
